Measurements: publication PMC3224040 (ACS medicinal chemistry letters, 2011)
Like-named read-outs stand apart in the source and are kept apart here.

What was measured:
dopamine D3 receptor = dopamine D3 receptor (Rattus norvegicus, UniProt P19020); assay: Yawning assay in rats; conditions: for High doses at which D2 agonist effects may be observed: antagonist interaction study in yawning assay
D2 receptor = D2 receptor (Rattus norvegicus, UniProt P61169); conditions: for Decrease in core body temperature: pretreatment of L-741,626 at 1 mg/kg; for Dose at onset of modest D2 agonist activity: yawning and hypothermia data
D3 receptor [1] = conditions: cited from earlier work; for Selectivity over the D2 receptor: D3 agonists, in vitro binding data; for Selectivity for D3 over D2: D3 antagonists
[2] = cited from earlier work
D3 receptor [3] = target: D3 receptor (Rattus norvegicus, UniProt P19020); conditions: rat brain binding, ratio of Ki values
Aqueous solubility = format: physicochemical; conditions: aqueous medium (not further specified)
human D1 receptor = human D1 receptor (Homo sapiens, UniProt P21728); assay: Binding to cloned human D1 receptor; conditions: at 10,000 nM
human D1 receptor, sequence (P21728 whole entry): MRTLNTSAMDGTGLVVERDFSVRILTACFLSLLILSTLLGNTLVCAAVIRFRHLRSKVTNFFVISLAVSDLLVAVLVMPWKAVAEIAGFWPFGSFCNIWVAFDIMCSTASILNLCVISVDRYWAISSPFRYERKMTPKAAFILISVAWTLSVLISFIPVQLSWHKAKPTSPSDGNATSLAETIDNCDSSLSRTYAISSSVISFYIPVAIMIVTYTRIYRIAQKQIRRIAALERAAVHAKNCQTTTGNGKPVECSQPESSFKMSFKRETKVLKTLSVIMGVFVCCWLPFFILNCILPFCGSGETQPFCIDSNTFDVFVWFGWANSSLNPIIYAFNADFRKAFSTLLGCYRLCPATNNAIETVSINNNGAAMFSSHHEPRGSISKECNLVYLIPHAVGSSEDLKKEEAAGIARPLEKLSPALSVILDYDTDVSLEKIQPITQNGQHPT

D3 receptor (Rattus norvegicus, UniProt P19020), sequence (P19020 whole entry): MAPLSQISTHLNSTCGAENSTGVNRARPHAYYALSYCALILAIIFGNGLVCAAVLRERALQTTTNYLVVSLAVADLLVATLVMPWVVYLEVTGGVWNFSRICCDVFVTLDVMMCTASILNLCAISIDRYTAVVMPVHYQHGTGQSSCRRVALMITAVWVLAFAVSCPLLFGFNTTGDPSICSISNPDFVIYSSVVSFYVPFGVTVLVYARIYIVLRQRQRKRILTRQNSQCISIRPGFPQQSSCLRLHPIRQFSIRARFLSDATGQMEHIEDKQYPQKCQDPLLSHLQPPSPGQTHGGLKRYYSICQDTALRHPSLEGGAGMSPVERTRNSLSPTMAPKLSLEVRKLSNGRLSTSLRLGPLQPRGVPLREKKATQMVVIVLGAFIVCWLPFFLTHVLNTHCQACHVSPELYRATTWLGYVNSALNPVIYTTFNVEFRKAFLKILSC
dopamine D3 receptor, sequence (P19020 whole entry): as above
D2 receptor, sequence (P61169 whole entry): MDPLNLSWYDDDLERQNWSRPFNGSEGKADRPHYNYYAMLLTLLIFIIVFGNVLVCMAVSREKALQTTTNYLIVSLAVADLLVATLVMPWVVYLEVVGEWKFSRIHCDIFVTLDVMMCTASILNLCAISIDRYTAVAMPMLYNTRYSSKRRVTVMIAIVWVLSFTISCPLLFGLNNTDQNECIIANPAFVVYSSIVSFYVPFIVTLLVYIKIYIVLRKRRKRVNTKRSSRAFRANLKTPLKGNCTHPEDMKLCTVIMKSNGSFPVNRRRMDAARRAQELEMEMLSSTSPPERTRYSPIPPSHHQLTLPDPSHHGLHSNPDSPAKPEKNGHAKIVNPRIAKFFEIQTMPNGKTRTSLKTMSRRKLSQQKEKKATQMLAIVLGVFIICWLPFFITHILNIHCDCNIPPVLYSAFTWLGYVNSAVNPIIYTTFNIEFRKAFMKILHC

What does the source list for `CCCN[C@H]1CCc2nc(N)sc2C1` [Compound 1, Pramipexole]?
High doses at which D2 agonist effects may be observed (dopamine D3 receptor): ~ 1.0 mg/kg; Decrease in core body temperature (D2 receptor; 0.32 mg/kg): approximately 0.75 °C; Effect on core body temperature (D2 receptor; doses of 0.32 and 1.0 mg/kg): significant decreases; Dose at onset of modest D2 agonist activity (D2 receptor): 0.32 mg/kg

For `CCCN1CCC[C@@H]2Cc3n[nH]cc3C[C@H]21` [Compound 2, Quinpirole], which “Selectivity over the D2 receptor” value (D3 receptor [1]) is on record?
Its value is under 100 fold.

Which “Selectivity over the D2 receptor” value (D3 receptor [1]) does the source give for `CCCN(CCC)C1CCc2ccc(O)cc2C1` (centres unmarked) [Compound 3, 7-hydroxy dipropylaminotetralin] here?
The value was under 100 fold.

With `N#Cc1ccc2c(c1)CCN(CCC1CCC(NC(=O)c3ccnc4ccccc34)CC1)C2` (centres unmarked) [Compound 4] as the compound, how does the “Selectivity for D3 over D2” value (D3 receptor [1]) read?
Its value is at most 100 fold.

For `Cc1nc(-c2cccc(C(=O)NC3CCC(CCN4CCc5ccc(S(C)(=O)=O)cc5CC4)CC3)c2)no1` (centres unmarked) [Compound 5], which “Selectivity for D3 over D2” value (D3 receptor [1]) is on record?
The value was at most 100 fold.

For `O=C(NCCCCN1CCN(c2cccc(Cl)c2Cl)CC1)c1ccc2c(c1)Cc1ccccc1-2` [Compound 6], which “Selectivity for D3 over D2” value (D3 receptor [1]) is on record?
The value was at most 100 fold.

For `CCCN(CC[C@H]1CC[C@H](NC(=O)/C=C/c2ccccc2)CC1)[C@H]1CCc2nc(N)sc2C1` [Compound 10], which Aqueous solubility [2] is on record?
Its Aqueous solubility is over 50 mg/mL.

With `CCCN(CC[C@H]1CC[C@H](NC(=O)c2ccc3ccccc3c2)CC1)[C@H]1CCc2nc(N)sc2C1` [Compound 11] as the compound, how does the Aqueous solubility [2] read?
Its Aqueous solubility is over 50 mg/mL.

For `CCCN(CC[C@]1(O)CC[C@@H](NC(=O)c2ccc3ccccc3c2)CC1)[C@H]1CCc2nc(N)sc2C1` [Compound 12], which “Selectivity D1-like/D3” value (D3 receptor [3]) is on record?
Its value is 7,373.

For `CCCN(CC[C@]1(O)CC[C@H](NC(=O)c2ccc3ccccc3c2)CC1)[C@H]1CCc2nc(N)sc2C1` [Compound 13], which “Selectivity D1-like/D3” value (D3 receptor [3]) is on record?
Its value is 15,115.

Which “Selectivity D1-like/D3” value (D3 receptor [3]) does the source give for `CCCN(CC[C@H]1C[C@H](NC(=O)c2ccc3ccccc3c2)C1)[C@H]1CCc2nc(N)sc2C1` [Compound 14] here?
The value was 14,848.

For `CCCN(CC[C@H]1C[C@@H](NC(=O)c2ccc3ccccc3c2)C1)[C@H]1CCc2nc(N)sc2C1` [Compound 15], which “Selectivity D1-like/D3” value (D3 receptor [3]) is on record?
Its value is 8,822.

Which solubility (Aqueous solubility) does the source give for `CCCN(CC[C@]1(O)C[C@@H](NC(=O)c2ccc3ccccc3c2)C1)[C@H]1CCc2nc(N)sc2C1` [Compound 16] here?
The solubility was over 100 mg/mL.

What about the “Dose producing peak levels of yawning” value (dopamine D3 receptor) of the same compound?
Its value is 1.0 mg/kg.

With `CCCN(CC[C@]1(O)C[C@H](NC(=O)c2ccc3ccccc3c2)C1)[C@H]1CCc2nc(N)sc2C1` [Compound 17] as the compound, how does the solubility (Aqueous solubility) read?
The solubility was over 100 mg/mL.

And the “Dose producing peak levels of yawning” value (dopamine D3 receptor)?
The value was 1.0 mg/kg.

What about the “High doses at which D2 agonist effects may be observed” value (dopamine D3 receptor) of the same compound?
The value was ~ 10.0 mg/kg.

And the “Dose active at the D3 receptor (significant yawning activity)” value (dopamine D3 receptor; lowest active dose)?
Its value is 0.01 mg/kg.

What about the “Effect on core body temperature” value (D2 receptor; 3.2 mg/kg) of the same compound?
Its value is “no significant effect”.

What about the “Effect on core body temperature” value (D2 receptor; 10 mg/kg) of the same compound?
Its value is “significant but a modest effect”.

What about the “Decrease in core body temperature” value (D2 receptor; 10 mg/kg) of the same compound?
Its value is “approximately 0.75 °C”.

What about the “Dose at onset of modest D2 agonist activity” value (D2 receptor) of the same compound?
The value was 10 mg/kg.

And the “Binding to human D1 receptor” value (human D1 receptor)?
The value was “no detectable binding”.

For `OC1(c2ccc(Cl)cc2)CCN(Cc2c[nH]c3ccccc23)CC1` [L-741,626], which “Effect of antagonist on yawning induced by lower agonist doses” value (dopamine D3 receptor; pramipexole 0.1 mg/kg and 17 1.0 mg/kg) is on record?
The value was “failed to modulate”.

And the “Effect of antagonist on hypothermia induced by compound 17” value (D2 receptor; 10 mg/kg compound 17)?
The value was “did not have a significant effect”.

What about the “Effect of antagonist on hypothermia induced by pramipexole” value (D2 receptor; in vivo, 0.32 mg/kg) of the same compound?
The value was “significantly reversed”.
